O=P(CCCO)(CCCO)CCCO
Conditions | solubility (mole fraction)
in acetone, 293.15 K | 0.0007
in acetone, 298.14 K | 0.00101
in acetone, 303.16 K | 0.00151
in acetone, 308.21 K | 0.00217
in acetone, 313.17 K | 0.00303
in acetone, 318.12 K | 0.00425
in acetone, 323.15 K | 0.00593
in ethanol, 298.12 K | 0.0226
in ethanol, 303.22 K | 0.0286
in ethanol, 308.17 K | 0.036
in ethanol, 313.1 K | 0.0456
in ethanol, 318.08 K | 0.0569
in ethanol, 323.11 K | 0.0718
in ethanol, 328.16 K | 0.0919
in isobutanol, 293.11 K | 0.0122
in isobutanol, 298.21 K | 0.0154
in isobutanol, 303.13 K | 0.019
in isobutanol, 308.15 K | 0.0234
in isobutanol, 313.17 K | 0.0291
in isobutanol, 318.14 K | 0.0357
in isobutanol, 323.23 K | 0.0436
in isopropanol, 298.13 K | 0.0155
in isopropanol, 303.21 K | 0.0187
in isopropanol, 308.15 K | 0.0224
in isopropanol, 313.17 K | 0.027
in isopropanol, 318.19 K | 0.0321
in isopropanol, 323.11 K | 0.0386
in isopropanol, 328.18 K | 0.0465
in methanol, 298.11 K | 0.0527
in methanol, 303.15 K | 0.0702
in methanol, 308.18 K | 0.091
in methanol, 313.1 K | 0.115
in methanol, 318.22 K | 0.144
in methanol, 323.14 K | 0.176
in methanol, 328.11 K | 0.21
in n-butanol, 298.13 K | 0.011
in n-butanol, 303.21 K | 0.0138
in n-butanol, 308.11 K | 0.0163
in n-butanol, 313.17 K | 0.02
in n-butanol, 318.15 K | 0.0252
in n-butanol, 323.1 K | 0.0302
in n-butanol, 328.23 K | 0.0369
in n-propanol, 298.16 K | 0.0369
in n-propanol, 303.11 K | 0.0438
in n-propanol, 308.13 K | 0.0517
in n-propanol, 313.12 K | 0.062
in n-propanol, 318.16 K | 0.0731
in n-propanol, 323.21 K | 0.0866
in n-propanol, 328.18 K | 0.102
